Measured values: ChEMBL document CHEMBL4270525, “SAR studies on truxillic acid mono esters as a new class of antinociceptive agents targeting fatty acid binding proteins” (Eur J Med Chem, 2018)

Columns and labels:
[1] = molecular target: Fatty acid-binding protein, heart (Homo sapiens, UniProt P05413); experiment: Displacement of DAUDA from recombinant human N-terminal His-tagged FABP3 expressed in Escherichia coli BL21(DE3) after 20 mins by fluorescence assay
[2] = molecular target: Fatty acid-binding protein 5 (Homo sapiens, UniProt Q01469); experiment: Displacement of DAUDA from recombinant human N-terminal His-tagged FABP5 expressed in Escherichia coli BL21(DE3) after 20 mins by fluorescence assay
[3] = molecular target: Fatty acid-binding protein, brain (Homo sapiens, UniProt O15540); experiment: Displacement of ANS from recombinant human N-terminal His-tagged FABP7 expressed in Escherichia coli BL21(DE3) after 20 mins by fluorescence assay
[4] = Colloidal aggregation of the compound at 20 uM by dynamic light scattering method; type: physicochemical
[5] = Half life in C57BL/6 mouse at 20 mg/kg, ip by LC-MS analysis; type: ADME, organism-based; conditions: in vivo

Chain of Fatty acid-binding protein, heart (P05413 whole entry): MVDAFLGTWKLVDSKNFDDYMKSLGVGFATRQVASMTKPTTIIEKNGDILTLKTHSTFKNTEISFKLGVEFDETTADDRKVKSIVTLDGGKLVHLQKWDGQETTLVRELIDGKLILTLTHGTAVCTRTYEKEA
Chain of Fatty acid-binding protein 5 (Q01469 whole entry): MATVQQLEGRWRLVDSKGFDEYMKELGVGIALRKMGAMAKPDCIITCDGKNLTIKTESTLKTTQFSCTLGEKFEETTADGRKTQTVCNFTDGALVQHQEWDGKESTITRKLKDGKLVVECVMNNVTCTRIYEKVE
Chain of Fatty acid-binding protein, brain (O15540 whole entry): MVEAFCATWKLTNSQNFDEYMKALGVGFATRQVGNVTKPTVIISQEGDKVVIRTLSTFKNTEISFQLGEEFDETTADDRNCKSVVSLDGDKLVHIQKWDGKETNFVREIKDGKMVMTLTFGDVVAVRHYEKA

Row | Compound | Ki ([1]; read-out: Ki) | Ki ([2]; read-out: Ki) | Ki ([3]; read-out: Ki) | further results
1 | O=C(O)[C@H]1[C@H](c2ccccc2)[C@@H](C(=O)Nc2nc(-c3ccc4c(c3)CCCC4)cs2)[C@H]1c1ccccc1 | > 10 µM | > 10 µM | > 10 µM | –
2 | COc1ccc(COC(=O)[C@H]2[C@H](c3ccccc3)[C@H](C(=O)OCc3ccc(OC)cc3)[C@H]2c2ccccc2)cc1 | > 10 µM | > 10 µM | > 10 µM | –
3 | O=C(O)[C@H]1[C@H](c2ccccc2)[C@H](C(=O)O)[C@H]1c1ccccc1 | > 10 µM | > 10 µM | > 10 µM | –
4 | O=C(OCC1CCOCC1)[C@H]1[C@H](c2ccccc2)[C@H](C(=O)OCC2CCOCC2)[C@H]1c1ccccc1 | > 10 µM | > 10 µM | > 10 µM | –
5 | COc1cc([C@H]2[C@H](C(=O)O)[C@H](c3ccc(O)c(OC)c3)[C@H]2C(=O)O)ccc1O | > 10 µM | > 10 µM | > 10 µM | –
6 | COc1ccccc1[C@H]1[C@H](C(=O)O)[C@H](c2ccccc2OC)[C@H]1C(=O)Oc1cccc2ncccc12 | > 10 µM | 3.93 µM | > 10 µM | –
7 | O=C(O)[C@H]1[C@H](c2ccccc2)[C@H](C(=O)Oc2cccc3ccccc23)[C@H]1c1ccccc1 | 2.82 µM | – | – | –
8 | O=C(O)[C@H]1[C@H](c2ccccc2Br)[C@H](C(=O)O[C@@H]2CCCC[C@H]2c2ccccc2)[C@H]1c1ccccc1Br | > 10 µM | – | > 10 µM | –
9 | COc1ccccc1[C@H]1[C@H](C(=O)O)[C@H](c2ccccc2OC)[C@H]1C(=O)O[C@@H]1CCCC[C@H]1c1ccccc1 | 0.4 µM | – | 0.4 µM | –
10 | O=C(O)[C@H]1[C@H](c2ccccc2)[C@H](C(=O)Nc2nc(-c3ccc4c(c3)CCCC4)cs2)[C@H]1c1ccccc1 | > 10 µM | > 10 µM | > 10 µM | –
11 | O=C(OCc1ccccc1)[C@H]1[C@H](c2ccccc2)[C@H](C(=O)OCc2ccccc2)[C@H]1c1ccccc1 | > 10 µM | > 10 µM | > 10 µM | –
12 | O=C(O)[C@H]1[C@H](c2ccccc2)[C@H](C(=O)Oc2ccccc2-c2ccccc2)[C@H]1c1ccccc1 | – | – | 0.35 µM | –
13 | O=C(O)[C@H]1[C@H](c2ccccc2[N+](=O)[O-])[C@H](C(=O)Oc2cccc3ccccc23)[C@H]1c1ccccc1[N+](=O)[O-] | > 10 µM | > 10 µM | > 10 µM | –
14 | O=C(O)[C@H]1[C@H](c2ccccc2)[C@H](C(=O)O[C@@H]2CCCC[C@H]2c2ccccc2)[C@H]1c1ccccc1 | – | – | – | Activity [4]: Not Active
15 | COc1ccc([C@H]2[C@H](C(=O)O)[C@H](c3ccc(OC)c(OC)c3)[C@H]2C(=O)O)cc1OC | > 10 µM | > 10 µM | > 10 µM | –
16 | O=C(OCc1ccc(F)cc1)[C@H]1[C@H](c2ccccc2)[C@H](C(=O)OCc2ccc(F)cc2)[C@H]1c1ccccc1 | > 10 µM | > 10 µM | > 10 µM | –
17 | O=C(O)[C@H]1[C@@H](c2ccccc2)[C@H](C(=O)Oc2cccc3ccccc23)[C@@H]1c1ccccc1 | 3.26 µM | – | – | –
18 | O=C(O)[C@H]1[C@H](c2ccccc2)[C@H](C(=O)OC2CCCCC2)[C@H]1c1ccccc1 | > 10 µM | – | 0.5 µM | –
19 | O=C(O)[C@H]1[C@H](c2ccccc2[N+](=O)[O-])[C@H](C(=O)O[C@@H]2CCCC[C@H]2c2ccccc2)[C@H]1c1ccccc1[N+](=O)[O-] | > 10 µM | > 10 µM | > 10 µM | –
20 | O=C(Oc1cccc(-c2ccccc2)c1)[C@H]1[C@H](c2ccccc2)[C@H](C(=O)Oc2cccc(-c3ccccc3)c2)[C@H]1c1ccccc1 | – | – | – | Ki [1]: Nd(Insoluble); Ki [2]: Nd(Insoluble); Ki [3]: Nd(Insoluble)
21 | O=C(O)[C@H]1[C@H](c2ccccc2)[C@H](C(=O)OCC(F)(F)F)[C@H]1c1ccccc1 | > 10 µM | > 10 µM | – | –
22 | O=C(O)[C@H]1[C@H](c2ccccc2)[C@H](C(=O)OCc2ccccc2)[C@H]1c1ccccc1 | > 10 µM | 3.81 µM | – | –
23 | O=C(O)[C@H]1[C@H](c2ccccc2)[C@H](C(=O)Oc2cc(Cl)c(Cl)cc2Cl)[C@H]1c1ccccc1 | 2.98 µM | – | 0.54 µM | –
24 | O=C(O)[C@H]1[C@H](c2c(Cl)cccc2Cl)[C@H](C(=O)O[C@@H]2CCCC[C@H]2c2ccccc2)[C@H]1c1c(Cl)cccc1Cl | > 10 µM | 1.23 µM | – | –
25 | O=C(O)[C@H]1[C@H](c2ccc(O)cc2)[C@H](C(=O)Oc2cccc3ccccc23)[C@H]1c1ccc(O)cc1 (racemic) | 2.3 µM | > 10 µM | – | –
26 | C#Cc1cccc(OC(=O)[C@H]2[C@@H](c3ccccc3)[C@H](C(=O)O)[C@@H]2c2ccccc2)c1 (racemic) | > 10 µM | 0.89 µM | 0.78 µM | –
27 | O=C(O)[C@H]1[C@H](c2ccccc2Cl)[C@H](C(=O)O[C@@H]2CCCC[C@H]2c2ccccc2)[C@H]1c1ccccc1Cl (racemic) | > 10 µM | 1.7 µM | > 10 µM | –
28 | O=C(O)C1C(c2ccccc2)C(C(=O)Oc2cccc3ccccc23)C1c1ccccc1 (racemic) | 2.7 µM | – | 0.45 µM | Activity [4]: Not Active; half-life [5]: 3 h
